Assay results taken from patent US20240383856A1 (Zedira GmbH, priority 2021, published 2024).
pIC50: −log10 of the molar value. Where two headings read alike, the source gives them in different places.

Assays:
[1] = Caco-2 permeability assay (CacoReady kit); assay type: in vitro ADME; conditions: human
Method in brief: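 Read-out is the permeability coefficient Papp, obtained from transport across a Caco-2 barrier prepared from a ready-to-use kit following the manufacturer's instructions.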

[2] = target: T1, recombinant human transglutaminase 2 (Homo sapiens, UniProt P21980); assay: Transglutaminase assay (DCC-assay): incorporation of dansylcadaverine into dimethylcasein; assay type: biochemical
T1 construct: purchased Zedira T022
T1 sequence (P21980 1-687): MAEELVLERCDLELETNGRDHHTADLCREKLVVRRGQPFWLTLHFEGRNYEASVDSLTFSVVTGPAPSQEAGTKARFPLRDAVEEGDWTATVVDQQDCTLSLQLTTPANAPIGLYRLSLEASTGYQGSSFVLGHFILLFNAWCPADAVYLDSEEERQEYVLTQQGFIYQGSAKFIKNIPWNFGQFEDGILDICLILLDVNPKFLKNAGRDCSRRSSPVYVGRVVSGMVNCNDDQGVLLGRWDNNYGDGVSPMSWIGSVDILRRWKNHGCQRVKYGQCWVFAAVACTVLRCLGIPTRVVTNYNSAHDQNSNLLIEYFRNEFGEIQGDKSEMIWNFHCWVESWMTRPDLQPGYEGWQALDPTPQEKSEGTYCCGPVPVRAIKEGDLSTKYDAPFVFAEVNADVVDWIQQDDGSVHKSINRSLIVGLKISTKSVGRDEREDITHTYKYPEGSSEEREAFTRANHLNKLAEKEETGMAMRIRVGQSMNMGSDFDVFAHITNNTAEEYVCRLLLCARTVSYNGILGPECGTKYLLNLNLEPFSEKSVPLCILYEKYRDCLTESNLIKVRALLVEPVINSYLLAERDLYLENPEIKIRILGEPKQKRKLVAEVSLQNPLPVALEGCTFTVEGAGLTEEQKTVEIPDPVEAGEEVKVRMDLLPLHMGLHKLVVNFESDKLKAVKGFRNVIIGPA
Method in brief: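 Recombinant human TG2 (10 nM final) incorporates dansylcadaverine into N,N-dimethylcasein. Reaction mix: 50 mM Tris-HCl, 10 mM CaCl2, 10 mM glutathione, 2.5% glycerol, 16.7 µM dansylcadaverine, 4 µM dimethylcasein, 200 mM NaCl, pH 8.0. Fluorescence (ex 330/em 500 nm) was followed 30 min at 37 °C; the 20–30 min slope, expressed as % of 2% DMSO control, gave IC50.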

[3] = Single-dose oral pharmacokinetic profile in mice; assay type: in vivo; conditions: male C57BL/6 mice, single oral dose 200 mg/kg; for CL/F / MRT / half-life / AUC(0-t) / Cmax: mouse, plasma
Method: Presumed from promising Papp values (permeability coefficients, see below), the 5 inventors had proven the oral bioavailability of the inhibitors of the present application by the representative compounds II-3, II-15, and II-28. For this selected set of representative compounds, pharmacokinetic profiles were determined in male C57BL/6 mice (N=3, each). Briefly, the compounds were administered as single-dose soluble, oral formulation [20 mg/ml in PBS/(2—Hydroxypropyl)-β-cyclodextrin formulation] at 200 mg/kg. Plasma samples were taken at (0, 0.25, 0.5, 1, 2, 4, and 6 hours) and analyzed by LC-MS to determine the concentration of the representative compounds.

[4] = logD by shake flask method (octanol / PBS pH 7.4, HPLC); assay type: physicochemical; conditions: octanol / PBS pH 7.4, shake flask
Method in brief: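 Shake-flask partition of compound between octanol and phosphate-buffered saline at pH 7.4, with each phase quantified by HPLC to give LogD.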

[5] = Caco-2, Caco-2, read-out: Papp [cm/s] ×10^−6
[6] = Caco-2, Caco-2 barrier, CacoReady kit, above 1×10^−6 cm/s classified as permeable
[7] = TG2, table with the PK study, read-out: IC50
[8] = recombinant human TG2 10 nM, dansylcadaverine incorporation into dimethylcasein, read-out: IC50 TG2

Papp [1, 5] | Papp [1, 6] | IC90 ([2]; TG2, table with the PK study) | pIC50 [2, 7] | pIC50 [2, 8] | Kel [3] | CL/F [3] | MRT [3] | half-life [3] | AUC(0-t) [3] | Cmax ([3]; read-out: Cmax) | Cmax ([3]; read-out: Cmax [ng/ml]) | logD [4] | Structure (SMILES)
5.9 ×10⁻⁶ cm/s | 1 to 10 ×10⁻⁶ cm/s | 375 nM | 7.46 | > 7.40 | 0.9 h⁻¹ | 102 mL/min/kg | 1.1 h | 0.9 h | 36900 ng·h/mL | 48.6 µM | 32300 ng/mL | 1 to 3 | CNC(=O)C(=O)CC[C@H](NC(=O)c1sc(C(F)(F)F)nc1C)C(=O)Nc1cccn(CC(=O)NC2C3CC4CC(C3)CC2C4)c1=O (stereo partly drawn) [II-15, (S)-N1-(1-(2-(2-adamantylamino)-2-oxoethyl)-2-oxo-1,2-dihydropyridin-3-yl)-N6-methyl-2-(4-methyl-2-(trifluoromethyl)thiazole-5-carboxamido)-5-oxohexanediamide]
7.4 ×10⁻⁶ cm/s | 1 to 10 ×10⁻⁶ cm/s | 240 nM | 7.62 | > 7.40 | 0.6 h⁻¹ | 247 mL/min/kg | 1.6 h | 1.1 h | 14500 ng·h/mL | 23.3 µM | 15100 ng/mL | 1 to 3 | CNC(=O)C(=O)CC[C@H](NC(=O)c1cc(Cl)sc1Cl)C(=O)Nc1cccn(CC(=O)NC2C3CC4CC(C3)CC2C4)c1=O (stereo partly drawn) [II-28, (S)-2-(2,5-dichlorothiophene-3-carboxamido)-N1-(1-(2-(2-adamantylamino)-2-oxoethyl)-2-oxo-1,2-dihydropyridin-3-yl)-N6-methyl-5-oxohexanediamide]
